Data from patent US5422126A, “Halogen compositions for water treatment and method of preparation thereof” (priority 1993, dated 1995).
Values after ≈ are worked out from the molar mass of the structure shown.

What was measured:
[1] = Water solubility of solid halogenated hydantoins and amount of halogen dissolved in a saturated solution; details: for Amount of halogen dissolved in saturated solution: saturated solution in water
physchem = details: water

solubility ([1]; water) [µg/mL]	solubility (physchem) [µg/mL]	Compound	Amount of halogen dissolved in saturated solution [1] [mg/L as Cl2]	Water solubility ([1]; solid halogenated hydantoin in water) [%]
		CC1(C)C(=O)N(Cl)C(=O)N1Br [Bromo-chlorodimethylhydantoin, bromochlorodimethylhydantoin]	825	0.15
1100 (≈ 3.85 mM)		CC1(C)C(=O)N(Br)C(=O)N1Br [Dibromodimethylhydantion, 1,3-dibromo-5,5-dimethylhydantoin]	542	
	2100 (≈ 10.7 mM)	CC1(C)C(=O)N(Cl)C(=O)N1Cl [Dichlorodimethylhydantoin, dichlorodimethylhydantoin]		
